# According to patent EP4806900A2, “RAS INHIBITORS” (Revolution Medicines, Inc., priority 2019, dated 2021):
# Values joined by “and” are separate entries in the source; they are usually repeats but may differ in a detail not shown here. Identical values can stand only once.
# Test system: NCI-H358 (K-Ras G12C)
# Test: CellTiter-Glo cell viability assay, NCI-H358
# Assay type: cell-based, human
# Details: Homo sapiens, NCI-H358, read-out: H358 Cell Viability assay data (K-Ras G12C, IC50, uM), Table 5
# Experimental: Note - The following protocol describes a procedure for monitoring cell viability of K-Ras mutant cancer cell lines in response to a compound of the invention. Other RAS isoforms may be employed, though the number of cells to be seeded will vary based on cell line used.
# Test compounds (132.5 nL) were directly dispensed into the assay plates containing cells. […] On day 5, assay plates and their contents were equilibrated to room temperature for approximately 30 minutes. […] Luminescence was measured using the PerkinElmer Enspire. Data were normalized by the following: (Sample signal/Avg. DMSO)*100. The data were fit using a four-parameter logistic fit.
row,Structure (SMILES),IC50
1,"C=CC(=O)N1CC[C@H](C(=O)N(C)[C@H](C(=O)N[C@H]2Cc3cc(O)cc(c3)-c3ccc4c(c3)c(c(-c3cccnc3[C@H](CC)OC)n4CC)CC(C)(C)COC(=O)[C@@H]3CCCN(N3)C2=O)C(C)C)C1 (atropisomer, axis not shown) [Compound A181]",< 0.01 µM
2,"C=CC(=O)N1CCO[C@H]2CCN(C(=O)N(C)[C@H](C(=O)N[C@H]3Cc4nc(cs4)-c4ccc5c(c4)c(c(-c4cccnc4[C@H](C)OC)n5CC)CC(C)(C)COC(=O)[C@@H]4CCCN(N4)C3=O)C(C)C)C[C@@H]21 (atropisomer, axis not shown) [Compound A609]",< 0.01 µM

# Same assay, conditions: Table 5; read-out: H358 Cell Viability assay data (K-Ras G12C, IC50)
row,Structure (SMILES),IC50
1,C=CC(=O)N1C[C@H](C)[C@H](C(=O)N(C)[C@H](C(=O)N[C@H]2Cc3cc(O)cc(c3)-c3ccc4c(c3)c(c(-c3ccccc3CN(C)C)n4CC)CC(C)(C)COC(=O)[C@@H]3CCCN(N3)C2=O)C(C)C)C1 [Compound A52],0.01 to 0.1 µM
2,C=CC(=O)N1CC[C@H](C(=O)N(C)[C@H](C(=O)N[C@H]2Cc3cc(O)cc(c3)-c3ccc4c(c3)c(c(-c3ccccc3[C@H](C)OC)n4CC)CC(C)(C)COC(=O)[C@@H]3CCCN(N3)C2=O)C(C)C)C1 [Compound A22],0.01 to 0.1 µM
3,C=CC(=O)N1CC[C@H](C(=O)N(C)[C@H](C(=O)N[C@H]2Cc3cc(O)cc(c3)-c3ccc4c(c3)c(c(-c3c(F)cccc3CCOC)n4CC)CC(C)(C)COC(=O)[C@@H]3CCCN(N3)C2=O)C(C)C)C1 [Compound A25],0.1 to 1 µM

# Further lines, results first:
row,IC50,Structure (SMILES)
1,< 0.01 µM and 0.01 to 0.1 µM,"C=CC(=O)N1CC[C@H](C(=O)N(C)[C@H](C(=O)N[C@H]2Cc3cc(O)cc(c3)-c3ccc4c(c3)c(c(-c3cccnc3[C@H](C)OC)n4CC)CC(C)(C)COC(=O)[C@@H]3CCCN(N3)C2=O)C(C)C)C1 [Compound A75, (2S)-N-[(8S,14S,20M)-22-ethyl-4-hydroxy-21-{2-[(1S)-1-methoxyethyl]pyridin-3-yl}-18,18-dimethyl-9,15-dioxo-16-oxa-10,22,28-triazapentacyclo[18.5.2.1^2,^6.1^10,^14.0^23,^27]nonacosa-1(26),2,4,6(29),20,23(27),24-heptaen-8-yl]-3-methyl-2-{N-methyl-1-[(3S)-1-(prop-2-enoyl)pyrrolidin-3-yl]formamido}butanamide]"
2,0.01 to 0.1 µM,C=CC(=O)N1CC[C@H](C(=O)N(C)[C@H](C(=O)N[C@H]2Cc3cc(O)cc(c3)-c3ccc4c(c3)c(c(-c3cnccc3C)n4CC)CC(C)(C)COC(=O)[C@@H]3CCCN(N3)C2=O)C(C)C)C1 [Compound A77]
3,0.01 to 0.1 µM,C=CC(=O)N1CC[C@H](C(=O)N(C)[C@H](C(=O)N[C@H]2Cc3nc(cs3)-c3ccc4c(c3)c(c(-c3cccnc3COC)n4CC)CC(C)(C)COC(=O)[C@@H]3CCCN(N3)C2=O)C(C)C)C1 [Compound A94]
4,0.01 to 0.1 µM,CCn1c(-c2cccnc2COC)c2c3cc(ccc31)-c1cc(O)cc(c1)C[C@H](NC(=O)[C@H](C(C)C)N(C)C(=O)C1CN(C(=O)C#CCN(C)C)C1)C(=O)N1CCC[C@H](N1)C(=O)OCC(C)(C)C2 [Compound A97]
5,0.01 to 0.1 µM,C=CC(=O)N1CC[C@H](C(=O)N(C)[C@H](C(=O)N[C@H]2Cc3cc(O)cc(c3)-c3ccc4c(c3)c(c(-c3ccc(CN5CCCC5)cc3)n4CC)CC(C)(C)COC(=O)[C@@H]3CCCN(N3)C2=O)C(C)C)C1 [Examples A10]

# Same assay, conditions: read-out: H358 Cell Viability assay data (K-Ras G12C, IC50); Table 5
row,Structure (SMILES),IC50
1,C=CC(=O)N1CC[C@H](C(=O)N(C)[C@H](C(=O)N[C@H]2Cc3cccc(c3)-c3ccc4c(c3)c(c(-c3cc(C5=CCN(C)CC5)cnc3[C@H](C)OC)n4CC)CC(C)(C)COC(=O)[C@@H]3CCCN(N3)C2=O)C(C)C)C1 [Compound A514],0.1 to 1 µM
2,"C=CC(=O)N1CC[C@H](C(=O)N(C)[C@H](C(=O)N[C@H]2Cc3nc(cs3)-c3ccc4c(c3)c(c(-c3cc(C5=CCN(C)CC5)cnc3[C@H](C)OC)n4CC)CC(C)(C)COC(=O)[C@@H]3CCCN(N3)C2=O)C(C)C)C1 (atropisomer, axis not shown) [Compound A520]",< 0.01 µM
